Assay results published in patent publication US7345070B2, “Peroxisome proliferator activated receptor agonists” (Eli Lilly and Company, priority 2000, dated 2008).

Assays:
HuapoAI transgenic mice = assay: Evaluation of triglyceride and cholesterol level in HuapoAI transgenic mice; type: in vivo; settings: Mus musculus, 168 h, human apoAI transgenic mice, 30 mg/kg oral gavage daily for 7 days; for change in vivo at 30 mg/kg: FPLC area under the curve, over mice receiving vehicle, read-out: % HDLc Increase; for inhibition in vivo at 30 mg/kg: serum 3 h after dosing, read-out: Reduction in Triglyceride Serum Level
Summary of the method: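 Mice got daily oral gavage doses for 7 days, and blood was drawn by cardiac puncture under isoflurane 3 h after the final dose. Serum triglycerides and total cholesterol were measured colorimetrically against standard curves. VLDL, LDL and HDL cholesterol came from Superose 6 FPLC in PBS-EDTA with in-line detection, as peak areas.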

huPPARγ = biological target: T1, huPPARγ (Homo sapiens, UniProt P37231); assay: DNA-dependent binding (ABCD binding) using SPA technology, huPPARγ; settings: SPA displacement of tritium-labeled PPARγ agonist radioligand
T1 sequence (P37231 1-505): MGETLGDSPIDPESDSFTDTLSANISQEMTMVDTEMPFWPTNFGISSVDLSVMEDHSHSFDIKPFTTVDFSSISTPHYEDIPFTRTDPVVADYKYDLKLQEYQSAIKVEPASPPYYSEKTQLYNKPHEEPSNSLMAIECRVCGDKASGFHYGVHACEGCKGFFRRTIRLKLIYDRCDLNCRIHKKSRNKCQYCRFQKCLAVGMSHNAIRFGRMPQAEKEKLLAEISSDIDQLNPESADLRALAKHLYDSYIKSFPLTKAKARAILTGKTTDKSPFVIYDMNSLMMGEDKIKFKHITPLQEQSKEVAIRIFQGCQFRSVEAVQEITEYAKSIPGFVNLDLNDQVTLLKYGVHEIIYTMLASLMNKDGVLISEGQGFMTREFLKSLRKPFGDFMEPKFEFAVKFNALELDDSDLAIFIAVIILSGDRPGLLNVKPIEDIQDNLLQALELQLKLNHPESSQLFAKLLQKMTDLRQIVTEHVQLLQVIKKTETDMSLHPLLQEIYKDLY
T1 sequence (P19793 1-462 partner): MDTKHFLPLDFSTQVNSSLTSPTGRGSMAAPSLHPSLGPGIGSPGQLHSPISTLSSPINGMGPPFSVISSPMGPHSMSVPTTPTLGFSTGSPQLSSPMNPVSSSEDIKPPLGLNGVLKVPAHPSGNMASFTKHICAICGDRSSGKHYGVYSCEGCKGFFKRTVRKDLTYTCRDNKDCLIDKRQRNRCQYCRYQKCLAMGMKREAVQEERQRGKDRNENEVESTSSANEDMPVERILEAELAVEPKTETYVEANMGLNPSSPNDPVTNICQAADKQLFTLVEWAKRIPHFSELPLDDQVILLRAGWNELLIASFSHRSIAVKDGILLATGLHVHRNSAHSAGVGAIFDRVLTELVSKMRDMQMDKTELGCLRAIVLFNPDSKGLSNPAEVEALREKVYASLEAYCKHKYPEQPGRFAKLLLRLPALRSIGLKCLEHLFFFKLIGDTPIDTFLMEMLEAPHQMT
Summary of the method: (§1)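 Binding: SPA displacement of tritiated PPARα or PPARγ agonist, giving IC50. Cotransfection: CV-1 cells with CMV-driven PPAR and RXRα, luciferase reporter (AOX PPRE/TK or GAL4 chimera); efficacy relative to PPARα or PPARγ reference agonists, from curve fit or at 10 μM.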

huPPARα = biological target: T2, huPPARα (Homo sapiens, UniProt Q07869); assay: DNA-dependent binding (ABCD binding) using SPA technology, huPPARα; settings: SPA displacement of tritium-labeled PPARα agonist radioligand
T2 sequence (Q07869 1-468): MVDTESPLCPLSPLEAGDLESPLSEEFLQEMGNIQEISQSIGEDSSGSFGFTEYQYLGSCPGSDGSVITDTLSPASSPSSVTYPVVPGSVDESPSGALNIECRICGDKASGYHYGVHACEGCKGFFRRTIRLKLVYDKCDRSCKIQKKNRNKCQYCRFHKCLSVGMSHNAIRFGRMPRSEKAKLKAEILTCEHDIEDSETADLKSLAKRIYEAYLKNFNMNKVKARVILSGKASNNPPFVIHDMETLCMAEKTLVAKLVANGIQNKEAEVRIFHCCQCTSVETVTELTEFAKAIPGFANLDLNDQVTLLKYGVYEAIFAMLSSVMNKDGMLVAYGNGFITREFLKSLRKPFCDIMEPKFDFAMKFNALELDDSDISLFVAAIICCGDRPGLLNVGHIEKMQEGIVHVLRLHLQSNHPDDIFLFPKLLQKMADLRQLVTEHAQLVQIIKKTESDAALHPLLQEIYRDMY
T2 sequence (P19793 1-462 partner): T1 sequence (P19793 1-462 partner)
Summary of the method: as §1

IC50 (huPPARγ) | IC50 (huPPARα) | Compound | change in vivo at 30 mg/kg (HuapoAI transgenic mice) | inhibition in vivo at 30 mg/kg (HuapoAI transgenic mice)
80 nM | 76 nM | Cc1oc(C2CCCCC2)nc1CCOc1ccc(CC(C)(Oc2ccc3c(c2)OCO3)C(=O)O)cc1 (stereo not shown) [Example 80, 2-(Benzo[1,3]dioxol-5-yloxy)-3-{4-[2-(2-cyclohexyl-5-methyl-oxazol-4-yl)-ethoxy]-phenyl}-2-methyl-propionic acid] | 123% | 36.6%
72 nM | 55 nM | Cc1oc(CCc2ccccc2)nc1CCOc1ccc(C[C@](C)(Oc2ccccc2)C(=O)O)cc1 [Example 86, (S)-2-Methyl-3-{4-[2-(5-methyl-2-phenethyl-oxazol-4-yl)-ethoxy]-phenyl}-2-phenoxy-propionic acid] | 36% | 30.1%
51 nM | 215 nM | Cc1oc(-c2ccccc2)nc1CCCc1ccc(CC(C)(Oc2ccccc2)C(=O)O)s1 (stereo not shown) [Example 91, 2-Methyl-3-{5-[3-(5-methyl-2-phenyl-oxazol-4-yl)-propyl]-thiophen-2-yl}-2-phenoxy-propionic acid] | 46% | 

The remaining lines, values behind:

Compound | IC50 (huPPARγ) | IC50 (huPPARα) | change in vivo at 30 mg/kg (HuapoAI transgenic mice) | inhibition in vivo at 30 mg/kg (HuapoAI transgenic mice)
Cc1oc(-c2cccs2)nc1CCOc1ccc(CC(C)(Oc2cccc(C(F)(F)F)c2)C(=O)O)cc1 (stereo not shown) [Example 71, 2-Methyl-3-{4-[2-(5-methyl-2-thiophen-2-yl-oxazol-4-yl)-ethoxy]-phenyl}-2-(3-trifluoromethyl-phenoxy)-propionic acid] | 81 nM | 78 nM | 34% | 
COc1cccc(OC(C)(Cc2ccc(OCCc3nc(C4CCCCC4)oc3C)cc2)C(=O)O)c1 (stereo not shown) [Example 76, 3-{4-[2-(2-Cyclohexyl-5-methyl-oxazol-4-yl)-ethoxy]-phenyl}-2-(3-methoxy-phenoxy)-2-methyl-propionic acid] | 83 nM | 76 nM | 26% | 27.1%
Cc1oc(-c2ccccc2)nc1CCOc1ccc(CC(C)(Oc2ccc3c(c2)OCO3)C(=O)O)cc1 (stereo not shown) [Example 78, 2-(Benzo[1,3]dioxol-5-yloxy)-2-methyl-3-{4-[2-(5-methyl-2-phenyl-oxazol-4-yl)-ethoxy]-phenyl}-propionic acid] | 89 nM | 75 nM | 95% | 64.8%
